Results on 18 molecules are retold here after ChEMBL document CHEMBL1122565, “Quantitative structure-activity relationships of 6-anilinouracils as inhibitors of Bacillus subtilis DNA polymerase III” (J Med Chem, 1984).

SMILES strings stand for the structures.

Assay [1] addresses DNA polymerase III (Bacillus subtilis). The experiment in a line: Inhibition constant against Bacillus subtilis azp-12 DNA polymerase III (mutant enzyme).
Assay [2] deals with DNA polymerase III PolC-type (Bacillus subtilis (strain 168), UniProt P13267). Description: Inhibition constant against Bacillus subtilis DNA polymerase III (wild type). As to conditions: read-out: Log 1/Ki (converted).
Chain of DNA polymerase III PolC-type (P13267 whole entry): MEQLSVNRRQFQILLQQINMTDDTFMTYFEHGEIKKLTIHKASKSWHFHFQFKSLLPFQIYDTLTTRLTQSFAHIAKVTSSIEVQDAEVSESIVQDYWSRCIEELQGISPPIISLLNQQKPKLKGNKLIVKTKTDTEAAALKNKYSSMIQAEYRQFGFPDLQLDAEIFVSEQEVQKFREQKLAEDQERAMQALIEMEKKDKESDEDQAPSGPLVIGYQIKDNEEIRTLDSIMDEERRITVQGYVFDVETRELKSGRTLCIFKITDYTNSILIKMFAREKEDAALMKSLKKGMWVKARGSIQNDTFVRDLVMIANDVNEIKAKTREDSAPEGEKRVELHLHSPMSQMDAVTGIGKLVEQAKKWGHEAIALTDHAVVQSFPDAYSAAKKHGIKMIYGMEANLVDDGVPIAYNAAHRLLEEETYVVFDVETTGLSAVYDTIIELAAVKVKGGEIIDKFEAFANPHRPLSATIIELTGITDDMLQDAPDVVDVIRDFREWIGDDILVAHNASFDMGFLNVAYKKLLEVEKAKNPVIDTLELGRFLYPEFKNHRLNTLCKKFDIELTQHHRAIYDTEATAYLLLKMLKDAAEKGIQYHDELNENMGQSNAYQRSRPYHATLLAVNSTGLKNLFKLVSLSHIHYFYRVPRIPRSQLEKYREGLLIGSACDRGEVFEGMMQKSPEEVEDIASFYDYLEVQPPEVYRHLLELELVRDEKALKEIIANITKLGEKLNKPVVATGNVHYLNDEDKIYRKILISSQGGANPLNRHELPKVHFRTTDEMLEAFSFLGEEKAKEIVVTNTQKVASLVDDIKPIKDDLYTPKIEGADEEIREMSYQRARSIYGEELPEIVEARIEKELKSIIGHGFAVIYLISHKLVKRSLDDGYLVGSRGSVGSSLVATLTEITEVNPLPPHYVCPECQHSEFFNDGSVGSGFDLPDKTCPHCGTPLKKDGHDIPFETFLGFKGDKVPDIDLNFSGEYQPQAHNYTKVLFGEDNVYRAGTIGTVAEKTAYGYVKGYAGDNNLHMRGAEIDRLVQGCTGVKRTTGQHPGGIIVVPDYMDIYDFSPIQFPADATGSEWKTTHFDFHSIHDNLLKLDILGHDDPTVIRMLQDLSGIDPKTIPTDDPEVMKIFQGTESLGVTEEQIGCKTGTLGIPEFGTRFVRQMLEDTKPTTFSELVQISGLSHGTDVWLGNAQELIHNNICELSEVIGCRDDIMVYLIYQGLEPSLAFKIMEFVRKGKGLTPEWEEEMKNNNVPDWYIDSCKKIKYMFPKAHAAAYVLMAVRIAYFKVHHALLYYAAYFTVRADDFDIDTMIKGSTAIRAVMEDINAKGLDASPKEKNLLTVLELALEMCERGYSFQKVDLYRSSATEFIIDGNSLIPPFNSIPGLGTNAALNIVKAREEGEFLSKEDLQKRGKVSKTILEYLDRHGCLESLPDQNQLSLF

For the molecule `Oc1cc(Nc2cccc(Br)c2)nc(O)n1`, the “Log 1/Ki” value in assay [1] was found to be 4.66.
With `CC(=O)Nc1ccc(Nc2cc(O)nc(O)n2)cc1C`, in assay [1], the “Log 1/Ki” value is on record as 2.81.
As to `OCc1cccc(Nc2cc(O)nc(O)n2)c1`, the “Log 1/Ki” value in assay [1] was 2.29.
As to `CC(=O)Nc1cc(Nc2cc(O)nc(O)n2)ccc1C`, in assay [1], the “Log 1/Ki” value is on record as 2.726.
As to `Nc1ccc(Nc2cc(O)nc(O)n2)cc1`, the “Log 1/Ki” value in assay [1] was 2.409.
Consider `CCCc1ccc(Nc2cc(O)nc(O)n2)cc1`, for which, in assay [1], the “Log 1/Ki” value was 4.278.
In the case of `Cc1cccc(Nc2cc(O)nc(O)n2)c1`, in assay [1], the “Log 1/Ki” value came out at 3.75.
Take `CCc1cc(Nc2cc(=O)[nH]c(=O)[nH]2)ccc1C`: in assay [2], the Ki is 0.19 µM.
With `CCCCc1ccc(Nc2cc(O)nc(O)n2)cc1C`, the “Log 1/Ki” value in assay [1] is 3.879. In addition, the Ki in assay [2] is 692 µM.
With `CCCCc1cccc(Nc2cc(O)nc(O)n2)c1`, the Ki in assay [2] was 695 µM.
As for `CCc1ccc(Nc2cc(=O)[nH]c(=O)[nH]2)cc1C`, the Ki in assay [2] is 19 µM.
As for `Cc1cc(Nc2cc(O)nc(O)n2)ccc1N`, the “Log 1/Ki” value in assay [1] is listed as 3.801.
As to `CCCc1ccc(Nc2cc(O)nc(O)n2)cc1C`, the “Log 1/Ki” value in assay [1] amounted to 4.86. Further, the Ki in assay [2] was 97.9 µM.
For `Cc1ccc(Nc2cc(O)nc(O)n2)cc1C`, in assay [1], the “Log 1/Ki” value is recorded as 5.456.
Regarding `CCCc1cccc(Nc2cc(O)nc(O)n2)c1`, in assay [2], the Ki was 17 µM.
Take `COc1ccc(Nc2cc(O)nc(O)n2)cc1`: the “Log 1/Ki” value in assay [1] came to 3.921.
As for `Oc1cc(Nc2cccc(Cl)c2)nc(O)n1`, the “Log 1/Ki” value in assay [1] was found to be 4.38.
Take `Cc1ccc(Nc2cc(O)nc(O)n2)cc1I`: in assay [1], the “Log 1/Ki” value was determined as 6.553.
